Assay results: patent publication US11976280B2, “SMAC/Diablo inhibitors useful for treating cancer” (THE NATIONAL INSTITUTE FOR BIOTECHNOLOGY IN THE NEGEV LTD., priority 2017, dated 2024)
Non-standard residues stand in square brackets, D forms with d. No end group written: not given here. Dmt = Cc1cc(O)cc(C)c1C[C@H](N)C(=O)O; Orn = NCCC[C@H](N)C(=O)O; d = 2'-deoxy (DNA); m = 2'-O-methyl; r = 2'-OH (RNA)

How the values were obtained:
A549 cells [1] = experiment: SRB cell growth assay, si-hSMAC B-D and 2′-O-Me modified siRNAs; format: cell-based, human; details: 30 and 50 nM
Description: The siRNAs were synthesized by Genepharma (Suzhou, China). Cells were seeded (150,000 cells/well) on 6-well culture dishes to 40-60% confluence and transfected with 10-100 nM si-NT or si-hSMAC/Diablo using the JetPRIME transfection reagent (Illkirch, France), according to the manufacturers' instructions.
Twenty-four hours post-transfection with si-NT or si-hSMAC, cells (10,000/well) were counted and seeded in 96-well plates. After additional 48, 72 or 96 hours, the cells were washed with PBS, fixed with 10% trichloroacetic acid, and stained with SRB. SRB was extracted from the cells using 100 mM Tris base and absorbance at 510 nm was determined using an Infinite M1000 plate reader (Tecan, Männedorf, Switzerland).
si-hSMAC-A and si-hSMAC-B were modified by 2′-O methylation (2′-O Me) to form si-hSMAC-A1, si-hSMAC-A2 si-hSMAC-A3 si-hSMAC-A4 si-hSMAC-B1 si-hSMAC-B2 si-hSMAC-B3 and si-hSMAC-B4 described hereinabove. The effect of these modified forms on SMAC/Diablo expression and on cell proliferation was examined using 30 and 50 nM of each inhibitory RNA molecule in the lung cancer line A549.

A549 cells [2] = experiment: SRB cell growth of A549 cells treated with peptide conjugates (Table 8); format: cell-based, human; details: 48 h in serum (10%) medium or 24 h serum-free, mean±SD (n=3)
Description: A549 cells were seeded in 96-well plate (5000 cells/well). After 24 h cells were incubated with each of the examined peptides at a concentration of 5, 10, or 30 μM for 48 h in a serum (10%) containing medium or for 24 h in a serum-free medium. Then, cells were washed with PBS, fixed with 10% trichloroacetic acid, and analyzed for cell growth using the SRB method described herein above. Cell growth with no addition of a peptide was taken as a control (100% cell growth). Table 8 presents the cell growth in the presence of the peptide as % of control. Results are the mean±SD (n=3).

SMAC/Diablo = molecular target: T1, SMAC/Diablo (Homo sapiens, UniProt Q9NR28); experiment: Peptide array after pre-incubation of SMAC/Diablo with free peptide; format: binding; details: for SMAC/Diablo interaction with the corresponding array-bound peptide: SMAC 0.8 μM pre-incubated with free peptide 2.4 μM
T1 sequence (Q9NR28 22-239): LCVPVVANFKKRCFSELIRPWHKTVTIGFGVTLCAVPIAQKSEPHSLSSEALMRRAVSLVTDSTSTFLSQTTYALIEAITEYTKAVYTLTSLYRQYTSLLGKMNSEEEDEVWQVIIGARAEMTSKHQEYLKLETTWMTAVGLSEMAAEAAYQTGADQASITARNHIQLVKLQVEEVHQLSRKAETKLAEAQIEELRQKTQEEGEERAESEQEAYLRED
Description: The glass-bound peptide array described hereinabove was used. SMAC/Diablo (0.8 μM) was incubated with each of the peptides—2C18 (2.4 μM) and 1G12 (2.4 μM) for 2 hr at 24° C. and then incubated with the peptide array for 4 h at 4° C. Then the slides were washed and SMAC/Diablo antibodies (1:2000) were added, followed by incubation with HRP-conjugated anti-mouse IgG after which chemiluminescent spots were detected. Corresponding glass-bound peptide array incubated overnight with 0.8 μM free SMAC/Diablo, blotted with the same concentration of SMAC/Diablo antibodies followed by incubation with HRP-conjugated anti-mouse IgG served as a control. […] This is indicated by the decreased intensity or disappearance of chemiluminescence in the peptide spot position compared to the control (FIG. 16 and FIG. 17, respectively). Moreover, pre-incubation of SMAC/Diablo with peptide 2C18 decreased SMAC/Diablo interaction with the array-bound peptides 1M17 and 1N23 derived from Nuclear receptor subfamily 4 group A member 1 Protein (NR4A1) and peptide 1K20 derived from TNF receptor associated factor 2 Protein (TRAF2) (FIG. 16B, eliminated spots are circled).

[3] = pre-incubation with free peptide 2.4 μM

In the case of “si-hSMAC-A1: si-hSMAC-A with 2′-O-Me at sense positions 5, 10, 16, 21 (SEQ ID NO:28) and antisense 6, 12, 19 (SEQ ID NO:29) (sense AAGCGGUGUUUCUCAGAAUUGTT; antisense AACAAUUCUGAGAAACCCGCTT; sense: sugars from the 5' end rrrrmrrrrmrrrrrmrrrrmdd, backbone not given here; antisense: sugars from the 5' end rrrrrmrrrrrmrrrrrrmrdd, backbone not given here)”, the “reducing cell proliferation, ranking among modified molecules” value (“reducing cell proliferation” below) (A549 cells [1]) is reported as “most active in reducing cell proliferation”.

In the case of “1H13-nuCPP: peptide conjugate targeted to nucleus, SEQ ID NO:69 (SGCAFLSVKKQFEELTLGEFLKLDR[dR]RK)”, the “Cell growth, % of control” value (A549 cells [2]; peptide 5 μM) is reported as 92 ± 0.018 % of control, the “Cell growth, % of control” value (A549 cells [2]; peptide 10 μM) is reported as 57 ± 0.013 % of control and the “Cell growth, % of control” value (A549 cells [2]; peptide 30 μM) is reported as 30 ± 0.009 % of control.

“mtCPP-2C18: peptide conjugate targeted to mitochondria, SEQ ID NO:74 ([dR][Dmt][Orn]FVRFITKIWHPNISSVTGAICLDILK)” was tested, and the “Cell growth, % of control” value (A549 cells [2]; peptide 5 μM) was 89 ± 0.005 % of control, the “Cell growth, % of control” value (A549 cells [2]; peptide 10 μM) was 74 ± 0.004 % of control and the “Cell growth, % of control” value (A549 cells [2]; peptide 30 μM) was 59 ± 0.004 % of control.

In the case of “nuCPP-1G12: peptide conjugate targeted to nucleus, SEQ ID NO:71 (R[dR]RKLIRKNRMALFQQLTCVLPILDNLLK)”, the “Cell growth, % of control” value (A549 cells [2]; peptide 5 μM) is reported as 96 ± 0.012 % of control, the “Cell growth, % of control” value (A549 cells [2]; peptide 10 μM) is reported as 72 ± 0.01 % of control and the “Cell growth, % of control” value (A549 cells [2]; peptide 30 μM) is reported as 66 ± 0.009 % of control.

In the case of “1G12-nuCPP: peptide conjugate targeted to nucleus, SEQ ID NO:70 (LIRKNRMALFQQLTCVLPILDNLLKR[dR]RK)”, the “Cell growth, % of control” value (A549 cells [2]; peptide 5 μM) is reported as 109 ± 0.013 % of control, the “Cell growth, % of control” value (A549 cells [2]; peptide 10 μM) is reported as 76 ± 0.024 % of control and the “Cell growth, % of control” value (A549 cells [2]; peptide 30 μM) is reported as 39 ± 0.013 % of control.

With VRFITKIWHPNISSVTGAICLDILK [2C18] the “SMAC/Diablo interaction with the corresponding array-bound peptide” value (SMAC/Diablo) was “significantly decreased or even prevented” and the “SMAC/Diablo interaction with array-bound peptides 1M17, 1N23 (NR4A1) and 1K20 (TRAF2)” value (SMAC/Diablo; [3]) was “decreased”.

In the case of “ANT-2C18 (MRQIKIWFQNRRMKWKVRFITKIWHPNISSVTGAICLDILK)”, the “Cell growth, % of control” value (A549 cells [2]; peptide 5 μM) is reported as 127 ± 0.006 % of control, the “Cell growth, % of control” value (A549 cells [2]; peptide 10 μM) is reported as 145 ± 0.0162 % of control and the “Cell growth, % of control” value (A549 cells [2]; peptide 30 μM) is reported as 97 ± 0.011 % of control.

In the case of “si-hSMAC-B3: si-hSMAC-B with 2′-O-Me at sense positions 6, 10, 15 (SEQ ID NO:40) and antisense 2, 9, 17 (SEQ ID NO:41) (sense GCAGAUCAGGCCUCUAUAATT; antisense UUAUAGAGGCCUGAUCUGCTT; sense: sugars from the 5' end rrrrrmrrrmrrrrmrrrrdd, backbone not given here; antisense: sugars from the 5' end rmrrrrrrmrrrrrrrmrrdd, backbone not given here)”, the “reducing cell proliferation” value (A549 cells [1]) is reported as “most active”.

With “TF-1G12: peptide conjugate targeted to cytosol, SEQ ID NO:76 (HAIYPRLIRKNRMALFQQLTCVLPILDNLLK; not fully specified)” the “Cell growth, % of control” value (A549 cells [2]; peptide 5 μM) was 99 ± 0.004 % of control, the “Cell growth, % of control” value (A549 cells [2]; peptide 10 μM) was 98 ± 0.005 % of control and the “Cell growth, % of control” value (A549 cells [2]; peptide 30 μM) was 99 ± 0.005 % of control.

With “si-hSMAC-A4: si-hSMAC-A with 2′-O-Me at sense positions 3, 6, 11, 21 (SEQ ID NO:34) and antisense 6, 19 (SEQ ID NO:35) (sense AAGCGGUGUUUCUCAGAAUUGTT; antisense AACAAUUCUGAGAAACCCGCTT; sense: sugars from the 5' end rrmrrmrrrrmrrrrrrrrrmdd, backbone not given here; antisense: sugars from the 5' end rrrrrmrrrrrrrrrrrrmrdd, backbone not given here)” the “reducing cell proliferation” value (A549 cells [1]) was “most active in reducing cell proliferation”.

“1H13-mtCPP-NH2: peptide conjugate targeted to mitochondria, SEQ ID NO:73 (SGCAFLSVKKQFEELTLGEFLKLD[dR][Dmt][Orn]F-NH2)” was tested, and the “Cell growth, % of control” value (A549 cells [2]; peptide 5 μM) was 85 ± 0.022 % of control, the “Cell growth, % of control” value (A549 cells [2]; peptide 10 μM) was 60 ± 0.018 % of control and the “Cell growth, % of control” value (A549 cells [2]; peptide 30 μM) was 49 ± 0.014 % of control.

LIRKNRMALFQQLTCVLPILDNLLK [1G12] was tested, and the “SMAC/Diablo interaction with the corresponding array-bound peptide” value (SMAC/Diablo) was “significantly decreased or even prevented” and the “SMAC/Diablo interaction with array-bound 1G12, 1G13, 1H13 (BIRC5) and 2D9 (MAML2)” value (SMAC/Diablo; [3]) was “significantly reduced”.

With “si-hSMAC-B2: si-hSMAC-B with 2′-O-Me at sense positions 4, 9, 13, 17 (SEQ ID NO:38) and antisense 6, 12, 18 (SEQ ID NO:39) (sense GCAGAUCAGGCCUCUAUAATT; antisense UUAUAGAGGCCUGAUCUGCTT; sense: sugars from the 5' end rrrmrrrrmrrrmrrrmrrdd, backbone not given here; antisense: sugars from the 5' end rrrrrmrrrrrmrrrrrmrdd, backbone not given here)” the “reducing cell proliferation” value (A549 cells [1]) was “most active”.
